Measurements from ChEMBL document CHEMBL1127264, “Substituted 1,3-benzodioxole & 1,3-benzodithiole -2-carboxylates and their tetrazole analogs with potent binding affinity to the angiotensin II AT1 receptor” (Bioorg Med Chem Lett, 1994).
pIC50: −log10 of the molar value.

Legend:
[1] = target: T1, Type-2 angiotensin II receptor (Rattus norvegicus, UniProt P35351); test: Binding affinity to AT2 receptor in rat midbrain binding assay; assay type: tissue-based
T1 sequence (P35351 whole entry): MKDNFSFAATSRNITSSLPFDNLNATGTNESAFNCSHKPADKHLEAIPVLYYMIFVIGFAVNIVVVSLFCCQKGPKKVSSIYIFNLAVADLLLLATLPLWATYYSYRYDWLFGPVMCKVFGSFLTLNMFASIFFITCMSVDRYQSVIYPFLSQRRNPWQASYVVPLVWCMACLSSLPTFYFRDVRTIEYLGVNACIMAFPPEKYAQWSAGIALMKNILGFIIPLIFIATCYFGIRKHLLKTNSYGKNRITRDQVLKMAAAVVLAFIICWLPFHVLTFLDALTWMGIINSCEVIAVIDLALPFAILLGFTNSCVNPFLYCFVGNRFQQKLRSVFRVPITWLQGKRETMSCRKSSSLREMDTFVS

[2] = target: T2, Type-1 angiotensin II receptor (Oryctolagus cuniculus, UniProt P34976); test: Binding affinity to Angiotensin II receptor, type 1 in rabbit aorta binding assay; assay type: tissue-based
T2 sequence (P34976 whole entry): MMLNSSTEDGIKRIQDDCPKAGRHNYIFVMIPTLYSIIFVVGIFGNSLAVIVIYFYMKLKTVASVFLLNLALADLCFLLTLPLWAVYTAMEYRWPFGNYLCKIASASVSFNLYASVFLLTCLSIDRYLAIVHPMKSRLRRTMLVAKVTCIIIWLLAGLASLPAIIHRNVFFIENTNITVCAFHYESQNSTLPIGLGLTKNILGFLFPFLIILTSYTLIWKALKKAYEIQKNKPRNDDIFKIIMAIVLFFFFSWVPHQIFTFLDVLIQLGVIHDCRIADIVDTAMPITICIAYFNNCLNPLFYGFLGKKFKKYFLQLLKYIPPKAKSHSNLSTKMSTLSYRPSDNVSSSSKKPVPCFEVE

SMILES	pIC50 [1]	pIC50 [2]
CCCc1nc2c(C)ccnc2n1Cc1ccc2c(c1)OC(c1ccccc1)(c1nn[nH]n1)O2 (stereo not drawn)	4.80	7.35
CCCc1nc2c(C)ccnc2n1Cc1ccc2c(c1)SC(C(=O)O)(c1ccccc1)S2 (stereo not drawn)	5.09	7.47
CCCc1nc2c(C)ccnc2n1Cc1ccc2c(c1)OC(C(=O)O)(c1ccccc1)O2 (stereo not drawn)	5.55	7.25
CCCc1nc2c(C)ccnc2n1Cc1ccc2c(c1)SC(c1ccccc1)(c1nn[nH]n1)S2 (stereo not drawn)	4.82	7.46
